According to patent US8183263B2 (priority 2007, dated 2012):

The compounds below were run on HCV replicon (assay: HCV replicon replication assay (NPT level by captured ELISA)). Details: Hepatitis C virus, 72 h; Huh-7 HCV replicon-containing cells, three days incubation; read-out: Activity (inhibition of HCV replicon replication).
Assay type: cell-based
In short: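 Huh-7 cells carrying HCV subgenomic replicon (NS3–NS5B, neo reporter) treated 3 days at 37 °C with 6 concentrations from 10 to 0.03 micromolar in G418-free medium, equal DMSO across wells. Replication measured on day four as NPTII level by in-cell captured ELISA on fixed cells; interferon alpha as positive control.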

CCCCCCCCOc1cc(Nc2nc(-c3cccnc3)cs2)ccc1C(F)(F)F [Cmp 68, N-(3-(octyloxy)-4-(trifluoromethyl)phenyl)-4-(pyridin-3-yl)thiazol-2-amine] and CCCCCCCCOc1ccc(Nc2ncc(-c3cccnc3)s2)cc1C(F)(F)F [Cmp 164, N-(4-(octyloxy)-3-(trifluoromethyl)phenyl)-5-(pyridin-3-yl)thiazol-2-amine] cannot be ordered by EC50: under 1000 nM for the first, under 1000 nM for the second.

Cc1ccc(CCCCOc2ccc(Nc3nc(-c4cccnc4)c(F)s3)cc2C(F)(F)F)cc1 [Cmp 107, 5-fluoro-4-(pyridin-3-yl)-N-(4-(4-p-tolylbutoxy)-3-(trifluoromethyl)phenyl)thiazol-2-amine] and Cc1ccc(CCCCOc2cc(Nc3nc(-c4cccnc4)c(F)s3)ccc2C(F)(F)F)cc1 [Cmp 126] cannot be ordered by EC50: under 1000 nM for the first, under 1000 nM for the second.

COc1ncc(-c2csc(Nc3ccc(C)c(OCC4CCCCC4)c3)n2)cn1 [Cmp 43, N-(3-(cyclohexylmethoxy)-4-methylphenyl)-4-(2-methoxypyrimidin-5-yl)thiazol-2-amine] and Cc1ccc(Nc2nc(-c3cccnc3)c(F)s2)cc1OCC1CCCCC1 [Cmp 59, N-(3-(cyclohexylmethoxy)-4-methylphenyl)-5-fluoro-4-(pyridin-3-yl)thiazol-2-amine] cannot be ordered by EC50: under 1000 nM for the first, under 1000 nM for the second.

COc1ncc(-c2csc(Nc3ccc(CCCCCc4ccc(C)cc4)c(C(F)(F)F)c3)n2)cn1 [Cmp 74, 4-(2-methoxypyrimidin-5-yl)-N-(4-(5-p-tolylpentyl)-3-(trifluoromethyl)phenyl)thiazol-2-amine] and Fc1ccc(CCCCCc2ccc(Nc3nc(-c4cccnc4)cs3)cc2C(F)(F)F)cc1 [Cmp 216, N-(4-(5-(4-fluorophenyl)pentyl)-3-(trifluoromethyl)phenyl)-4-(pyridin-3-yl)thiazol-2-amine] cannot be ordered by EC50: under 1000 nM for the first, under 1000 nM for the second.

COc1ncc(-c2csc(Nc3ccc(Oc4ccccc4)c(C(C)=O)c3)n2)cn1 [Cmp 86, 1-(5-(4-(2-methoxypyrimidin-5-yl)thiazol-2-ylamino)-2-phenoxyphenyl)ethanone] and CCc1ccc(Oc2ccc(Nc3nc(-c4cnc(OC)nc4)cs3)cc2C(C)=O)cc1 [Cmp 87, 1-(2-(4-ethylphenoxy)-5-(4-(2-methoxypyrimidin-5-yl)thiazol-2-ylamino)phenyl)ethanone] cannot be ordered by EC50: under 1000 nM for the first, under 1000 nM for the second.

Compared with COc1ncc(-c2csc(Nc3ccc(Oc4ccccc4)c(C(F)(F)F)c3)n2)cn1 [Cmp 51, 4-(2-methoxypyrimidin-5-yl)-N-(4-phenoxy-3-(trifluoromethyl)phenyl)thiazol-2-amine], FC(F)(F)c1ccc(Nc2nc(-c3cccnc3)cs2)cc1Oc1ccccc1 [Cmp 102] is higher in EC50: under 1000 nM for the first, 1000 to 10000 nM for the second. The first is the more potent here.

CCCCCCCCc1ccc(Nc2nc(-c3cnccn3)cs2)cc1C(F)(F)F [Cmp 161, N-(4-octyl-3-(trifluoromethyl)phenyl)-4-(pyrazin-2-yl)thiazol-2-amine] and CCCCCCCCc1ccc(Nc2nc(-c3ccc(F)nc3)c(F)s2)cc1C(F)(F)F [Cmp 174, 5-fluoro-4-(6-fluoropyridin-3-yl)-N-(4-octyl-3-(trifluoromethyl)phenyl)thiazol-2-amine] cannot be ordered by EC50: under 1000 nM for the first, under 1000 nM for the second.

Fc1ccc(C#CCCOc2ccc(Nc3nc(-c4cccnc4)cs3)cc2C(F)(F)F)cc1 [Cmp 24, N-(4-(4-(4-fluorophenyl)but-3-ynyloxy)-3-(trifluoromethyl)phenyl)-4-(pyridin-3-yl)thiazol-2-amine] and Fc1ccc(C#CCCOc2ccc(Nc3nc(-c4cccnc4)c(F)s3)cc2C(F)(F)F)cc1 [Cmp 163, 5-fluoro-N-(4-(4-(4-fluorophenyl)but-3-ynyloxy)-3-(trifluoromethyl)phenyl)-4-(pyridin-3-yl)thiazol-2-amine] cannot be ordered by EC50: under 1000 nM for the first, under 1000 nM for the second.

Fc1sc(Nc2ccc(OCCCCc3cccs3)c(C(F)(F)F)c2)nc1-c1cccnc1 [Cmp 90, 5-fluoro-4-(pyridin-3-yl)-N-(4-(4-(thiophen-2-yl)butoxy)-3-(trifluoromethyl)phenyl)thiazol-2-amine] and Cc1cccc(OCCCc2ccc(Nc3nc(-c4cccnc4)c(F)s3)cc2C(F)(F)F)c1 [Cmp 92, 5-fluoro-4-(pyridin-3-yl)-N-(4-(3-(m-tolyloxy)propyl)-3-(trifluoromethyl)phenyl)thiazol-2-amine] cannot be ordered by EC50: under 1000 nM for the first, under 1000 nM for the second.

CCc1ccc(Oc2ccc(Nc3nc(-c4cccnc4)c(F)s3)cc2C(C)=O)cc1 [Cmp 131, 1-(2-(4-ethylphenoxy)-5-(5-fluoro-4-(pyridin-3-yl)thiazol-2-ylamino)phenyl)ethanone] and Fc1sc(Nc2ccc(Oc3ccc(Cl)cc3)c(C(F)(F)F)c2)nc1-c1cccnc1 [Cmp 97, N-(4-(4-chlorophenoxy)-3-(trifluoromethyl)phenyl)-5-fluoro-4-(pyridin-3-yl)thiazol-2-amine] cannot be ordered by EC50: under 1000 nM for the first, under 1000 nM for the second.

CCCCCCCc1nc2cc(Nc3nc(-c4cccnc4)c(F)s3)ccc2o1 [Cmp 93, N-(5-fluoro-4-(pyridin-3-yl)thiazol-2-yl)-2-heptylbenzo[d]oxazol-5-amine] and CCCCCc1nc2cc(Nc3nc(-c4cccnc4)c(F)s3)ccc2o1 [Cmp 65, N-(5-fluoro-4-(pyridin-3-yl)thiazol-2-yl)-2-pentylbenzo[d]oxazol-5-amine] cannot be ordered by EC50: under 1000 nM for the first, under 1000 nM for the second.

First: O=c1cc(-c2ccccc2)oc2ccc(Nc3nc(-c4cccnc4)cs3)cc12 [Cmp 148, 2-phenyl-6-(4-(pyridin-3-yl)thiazol-2-ylamino)-4H-chromen-4-one]
Second: CC(=O)c1cc(Nc2nc(-c3cccnc3)cs2)ccc1Oc1ccccc1 [Cmp 85, 1-(2-phenoxy-5-(4-(pyridin-3-yl)thiazol-2-ylamino)phenyl)ethanone]
The EC50 of the first is higher: over 10000 nM for the first, under 1000 nM for the second. The second is the more potent here.

CCCCCCCCOc1c(F)cc(Nc2nc(-c3cccnc3)cs2)cc1F [Cmp 110, N-(3,5-difluoro-4-(octyloxy)phenyl)-4-(pyridin-3-yl)thiazol-2-amine] and CCCCCCCCOc1c(F)cc(Nc2nc(-c3cccnc3)c(F)s2)cc1F [Cmp 119, N-(3,5-difluoro-4-(octyloxy)phenyl)-5-fluoro-4-(pyridin-3-yl)thiazol-2-amine] cannot be ordered by EC50: under 1000 nM for the first, under 1000 nM for the second.

FC(F)(F)c1cc(Nc2nc(-c3cccnc3)cs2)ccc1OCCCCc1cnc2ccccc2c1 [Cmp 145, 4-(pyridin-3-yl)-N-(4-(4-(quinolin-3-yl)butoxy)-3-(trifluoromethyl)phenyl)thiazol-2-amine] and Cc1ccccc1CCCCOc1ccc(Nc2nc(-c3cccnc3)cs2)cc1C(F)(F)F [Cmp 22, 4-(pyridin-3-yl)-N-(4-(4-o-tolylbutoxy)-3-(trifluoromethyl)phenyl)thiazol-2-amine] cannot be ordered by EC50: under 1000 nM for the first, under 1000 nM for the second.

CCCCCc1nc2ccc(Nc3nc(-c4cccnc4)c(F)s3)cc2o1 [Cmp 67, N-(5-fluoro-4-(pyridin-3-yl)thiazol-2-yl)-2-pentylbenzo[d]oxazol-6-amine] and CCCCCCC[C@@H](C)Oc1ccc(Nc2nc(-c3cccnc3)c(F)s2)cc1C(F)(F)F [Cmp 233, (R)-5-fluoro-N-(4-(nonan-2-yloxy)-3-(trifluoromethyl)phenyl)-4-(pyridin-3-yl)thiazol-2-amine] cannot be ordered by EC50: under 1000 nM for the first, under 1000 nM for the second.

CCCCCCCC(C)(C)Oc1ccc(Nc2nc(-c3cccnc3)c(F)s2)cc1C(F)(F)F [Cmp 221, 5-fluoro-N-(4-(2-methylnonan-2-yloxy)-3-(trifluoromethyl)phenyl)-4-(pyridin-3-yl)thiazol-2-amine] and CCCCCCCCc1ccc(Nc2nc(-c3cncc(C#N)c3)c(F)s2)cc1C(F)(F)F [Cmp 182, 5-(5-fluoro-2-(4-octyl-3-(trifluoromethyl)phenylamino)thiazol-4-yl)nicotinonitrile] cannot be ordered by EC50: under 1000 nM for the first, under 1000 nM for the second.

CCCCCc1nc2cc(Nc3nc(-c4cnc(OC)nc4)cs3)ccc2o1 [Cmp 55, N-(4-(2-methoxypyrimidin-5-yl)thiazol-2-yl)-2-pentylbenzo[d]oxazol-5-amine] and CCCCCOc1cc(Nc2nc(-c3cnc(OC)nc3)cs2)ccc1C(F)(F)F [Cmp 72, 4-(2-methoxypyrimidin-5-yl)-N-(3-(pentyloxy)-4-(trifluoromethyl)phenyl)thiazol-2-amine] cannot be ordered by EC50: under 1000 nM for the first, under 1000 nM for the second.

CCCCCOc1cc(Nc2nc(-c3cccnc3)cs2)ccc1C [Cmp 26, N-(4-methyl-3-(pentyloxy)phenyl)-4-(pyridin-3-yl)thiazol-2-amine] and CCCCCCCCc1cc2cc(Nc3nc(-c4cccnc4)cs3)ccc2o1 [Cmp 106, N-(2-octylbenzofuran-5-yl)-4-(pyridin-3-yl)thiazol-2-amine] cannot be ordered by EC50: under 1000 nM for the first, under 1000 nM for the second.

Fc1ccc(-c2nc(Nc3ccc(OCCCC4CCCC4)c(C(F)(F)F)c3)sc2F)cn1 [Cmp 173, N-(4-(3-cyclopentylpropoxy)-3-(trifluoromethyl)phenyl)-5-fluoro-4-(6-fluoropyridin-3-yl)thiazol-2-amine] and FC(F)(F)c1cc(Nc2nc(-c3cccnc3)cs2)ccc1OCCCCc1ccc(Cl)cc1 [Cmp 23, N-(4-(4-(4-chlorophenyl)butoxy)-3-(trifluoromethyl)phenyl)-4-(pyridin-3-yl)thiazol-2-amine] cannot be ordered by EC50: under 1000 nM for the first, under 1000 nM for the second.

C/C=N/N(c1ccc(OCCCCCCCC)c(C(F)(F)F)c1)c1nc(-c2cccnc2)cs1 [Cmp 33, (E)-2-(2-ethylidene-1-(4-(octyloxy)-3-(trifluoromethyl)phenyl)hydrazinyl)-4-(pyridin-3-yl)thiazole] and CCCCCCCCOc1ccc(Nc2ncc(Oc3cccnc3)s2)cc1C(F)(F)F [Cmp 144, N-(4-(octyloxy)-3-(trifluoromethyl)phenyl)-5-(pyridin-3-yloxy)thiazol-2-amine] cannot be ordered by EC50: under 1000 nM for the first, under 1000 nM for the second.

Cc1ccc(Nc2nc(-c3ccc(F)cc3)c(F)s2)cc1OCCOc1ccccc1 [Cmp 60, 5-fluoro-4-(4-fluorophenyl)-N-(4-methyl-3-(2-phenoxyethoxy)phenyl)thiazol-2-amine] and Cc1cccc(OCCCc2ccc(Nc3nc(-c4cccnc4)cs3)cc2C(F)(F)F)c1 [Cmp 91, 4-(pyridin-3-yl)-N-(4-(3-(m-tolyloxy)propyl)-3-(trifluoromethyl)phenyl)thiazol-2-amine] cannot be ordered by EC50: under 1000 nM for the first, under 1000 nM for the second.
